In patent US20230125425A1, “TRADITIONAL CHINESE MEDICINE EXTRACT COMPOSITION WITH FUNCTION OF REGULATING DEPRESSIVE EMOTION AND PREPARATION METHOD AND TRADITIONAL CHINESE MEDICINE PREPARATION THEREOF” (CHENLAND NUTRITIONALS, INC., priority 2019, published 2023):
Counter-ions that a name gives are not always drawn.

Columns and labels:
Format in all cases: in vivo
C57BL/6J mice [1] = assay: Tail suspension test of mice; details: gavage daily for one month, 3.33 mg/kg, last 4 min of 6 min, x ± SE, hydrochloride
Procedure: (§1) The mice were kept in a light, temperature and humidity controlled room with 6 mice per cage, and were allowed to eat and drink ad libitum: temperature 21±2° C. humidity 50±10%, 12 h/12 h light and dark cycle (light on at 20:00, light off at 8:00). All animal experiments were conducted in accordance with the guidelines on experiment animal welfare and use issued by NIH.
(§2) The mice were adapted for one week after their arrival, and then entered the experiment.
(§3) The normal group was given the same volume of purified water by gavage, and the gavage doses of other groups are shown in the table in the Experimental results. The mice were administrated by gavage at a fixed time (9:00) every morning, with a gavage volume of 0.1 mL·10g^−1, for one month. The behavioral test was performed 1 h after the last gavage.
In the tail suspension test, mice were hung on the tail suspension device using medical tape at a position ⅓ from the tip of the tail, in an upright position with the head being about 30 cm from the ground and facing straight onto a camera, which was used to record the immobility time during the tail suspension test of the mice in each group. The test lasted for 6 minutes, and the last 4 minutes were used to calculate the immobility time during the tail suspension test of mice. Immobility time is defined as the time when the mouse stops struggling and is still in a hanging state.

C57BL/6J mice [2] = assay: Forced swimming test of mice; details: gavage daily for one month, 3.33 mg/kg, x ± SE, hydrochloride
Procedure: as §1, §2, §3
During forced swimming, all animals were put into a plexiglass cylinder containing water with a deep of 20 cm at 23±1° C., individually. After 15 minutes, they were transferred to a dry environment at 30° C. for 30 minutes (pre-experiment). After 24 hours, the mice were put into the plexiglass cylinder again for 5 minutes (formal experiment). During this period, the mice were recorded with a video camera. After each mouse was tested, the water was changed and the cylinder was cleaned. SMART3.0 software was used to record the number of static suspension and the latency of static suspension.

C57BL/6J mice [3] = assay: Open field test of mice; details: open field 6 min, gavage one month, 3.33 mg/kg, x ± SE, hydrochloride
Procedure: as §1, §2, §3
The test was carried out in an open field box with a length of 50 cm, a width of 50 cm and a depth of 50 cm. The bottom surface of the open field box was equally divided into 9 squares, in which the middle area was the central area, and the remaining areas were the peripheral areas. The bottom and four sides of the open field box were all white. The test was carried out in a quiet and weak red light environment. At the beginning, the mice were placed in the center of the open field box to observe their activities within 6 minutes. The total movement distance, the movement distance in the central area and the number of standing upright of the mice were recorded.

CNCCC(Oc1ccc(C(F)(F)F)cc1)c1ccccc1 (stereo not drawn) [FXT, Fluoxetine hydrochloride]
Immobility time during tail suspension (C57BL/6J mice [1]): 59.62 ± 6.270 s | Immobility time during tail suspension (C57BL/6J mice [1]; listed as fluoxetine): significantly less than that of the control group | Number of static suspension (C57BL/6J mice [2]): 54.64 ± 2.704 | Number of static suspension (C57BL/6J mice [2]; listed as fluoxetine): significantly less than that of the control group | Number of standing uprights (C57BL/6J mice [3]): 29.20 ± 2.133 | Total movement distance (C57BL/6J mice [3]): 18435 ± 950.6 | Movement distance in the central area (C57BL/6J mice [3]; listed as fluoxetine): no significant change | Number of standing uprights (C57BL/6J mice [3]; listed as fluoxetine): no significant change | Total movement distance (C57BL/6J mice [3]; listed as fluoxetine): no significant change
